The values that follow come from ChEMBL document CHEMBL1136372, “Antibacterial activity of quinolone-macrocycle conjugates” (2003).

The subject of one assay is Escherichia coli. Briefly: Minimum inhibitory concentration against Escherichia coli ATCC 25922. It counts as functional.
For another assay, the system named is Staphylococcus aureus. Briefly: Minimum inhibitory concentration (MIC) against Staphylococcus aureus ATCC 13709. It counts as functional.

Values after ≈ are worked out from the molar mass of the structure shown.

For orientation: MIC means the smallest concentration in the dilution series that meets the test's criterion for growth inhibition. Consider `CC1COc2c(N3CCN(C)CC3)c(F)cc3c2N1CC(C(=O)Nc1ccc2c(c1)C(=O)NCCC(=O)N[C@@H](CCN)C(=O)N[C@H](Cc1ccc(O)cc1)CO2)C3=O` (some centres not stated), for which the figures for the minimum inhibitory concentration (MIC) in the assay on Escherichia coli and against Staphylococcus aureus were 3 µM (≈ 2.4 µg/mL) and 13 µM (≈ 10.4 µg/mL), respectively.

For `CCn1cc(C(=O)Nc2ccc3c(c2)C(=O)NCCC(=O)N[C@H](CCN)C(=O)N[C@H](Cc2ccccc2)CO3)c(=O)c2ccc(C)nc21`, the minimum inhibitory concentration (MIC) in the assay with Escherichia coli was 50 µM (≈ 32.7 µg/mL); in the assay with Staphylococcus aureus, more than 100 µM.

As to `NCC[C@@H]1NC(=O)CCNC(=O)c2cc(NC(=O)c3ccc4ccccc4c3)ccc2OC[C@@H](Cc2ccc(O)cc2)NC1=O`, the minimum inhibitory concentration (MIC) against Escherichia coli and with Staphylococcus aureus was more than 100 µM throughout.

Regarding `CN1CCN(c2cc3c(cc2F)C(=O)C(C(=O)Nc2ccc4c(c2)C(=O)NCCC(=O)N[C@@H](CCN)C(=O)N[C@H](Cc2ccc(O)cc2)CO4)CN3C2CC2)CC1` (some centres not stated), the MIC against Escherichia coli turned out to be 0.2 µM (≈ 0.157 µg/mL); against Staphylococcus aureus, 1.6 µM (≈ 1.26 µg/mL).

Regarding `NCC[C@@H]1NC(=O)CCNC(=O)c2cc(NC(=O)c3cnc4ccccc4c3)ccc2OC[C@@H](Cc2ccc(O)cc2)NC1=O`, the MIC in the assay with Escherichia coli and against Staphylococcus aureus was more than 100 µM in each case.

On to `CCn1cc(C(=O)Nc2ccc3c(c2)C(=O)NCCC(=O)N[C@H](CCN)C(=O)N[C@@H](Cc2ccc(O)cc2)CO3)c(=O)c2ccc(C)nc21`, for which the MIC with Escherichia coli was 50 µM (≈ 33.5 µg/mL); with Staphylococcus aureus, more than 100 µM.

Turning to `CC1COc2c(N3CCN(C)CC3)c(F)cc3c(=O)c(C(=O)O)cn1c23` (configuration not stated) [OFLOXACIN], the values for the minimal inhibitory concentration (MIC) against Escherichia coli and in the assay with Staphylococcus aureus were 0.78 µM (≈ 0.282 µg/mL) and 25 µM (≈ 9.03 µg/mL), respectively.

For the molecule `CC1COc2c(N3CCN(C)CC3)c(F)cc3c2N1CC(C(=O)NCCC(=O)Nc1ccc2c(c1)C(=O)NCCC(=O)N[C@@H](CCN)C(=O)N[C@H](Cc1ccc(O)cc1)CO2)C3=O` (some centres not stated), the MIC with Escherichia coli was determined as 3 µM (≈ 2.62 µg/mL); against Staphylococcus aureus, 13 µM (≈ 11.3 µg/mL).

In the case of `CCn1cc(C(=O)Nc2ccc3c(c2)C(=O)NCCC(=O)N[C@@H](CCN)C(=O)N[C@@H](Cc2ccccc2)CO3)c(=O)c2ccc(C)nc21`, the MIC was 50 µM (≈ 32.7 µg/mL) in the assay with Escherichia coli and more than 100 µM against Staphylococcus aureus.

For `CCN1CC(C(=O)Nc2ccc3c(c2)C(=O)NCCC(=O)N[C@@H](CCN)C(=O)N[C@H](Cc2ccc(O)cc2)CO3)C(=O)c2ccc(C)nc21` (some centres not stated), the minimal inhibitory concentration (MIC) in the assay with Escherichia coli is 50 µM (≈ 33.6 µg/mL); with Staphylococcus aureus, more than 100 µM.

Turning to `CCN1CC(CNc2ccc3c(c2)C(=O)NCCC(=O)N[C@@H](CCN)C(=O)N[C@H](Cc2ccc(O)cc2)CO3)C(=O)c2ccc(C)nc21` (some centres not stated), the MIC against Escherichia coli and with Staphylococcus aureus was more than 100 µM throughout.

Take `O=C(O)c1cn(C2CC2)c2cc(N3CCNCC3)c(F)cc2c1=O` [CIPROFLOXACIN]: the MIC was 0.08 µM (≈ 0.0265 µg/mL) against Escherichia coli and 0.6 µM (≈ 0.199 µg/mL) in the assay on Staphylococcus aureus.

As to `CC1COc2c(N3CCN(C)CC3)c(F)cc3c2N1CC(C(=O)N(C)CC(=O)Nc1ccc2c(c1)C(=O)NCCC(=O)N[C@@H](CCN)C(=O)N[C@H](Cc1ccc(O)cc1)CO2)C3=O` (some centres not stated), the MIC was determined as 6 µM (≈ 5.23 µg/mL) in the assay on Escherichia coli and 50 µM (≈ 43.6 µg/mL) against Staphylococcus aureus.

Take `NCC[C@@H]1NC(=O)CCNC(=O)c2cc(NC(=O)Cn3cnc4c(N)ncnc43)ccc2OC[C@@H](Cc2ccc(O)cc2)NC1=O`: the MIC in the assay on Escherichia coli and with Staphylococcus aureus was more than 100 µM each time.

`CCn1cc(C(=O)O)c(=O)c2ccc(C)nc21` [NALIDIXIC ACID]: the MIC with Escherichia coli was 3 µM (≈ 0.697 µg/mL); in the assay on Staphylococcus aureus, 75 µM (≈ 17.4 µg/mL).

On to `CCn1cc(C(=O)Nc2ccc3c(c2)C(=O)NCCC(=O)N[C@@H](CCN)C(=O)N[C@@H](Cc2ccc(O)cc2)CO3)c(=O)c2ccc(C)nc21`, for which the minimal inhibitory concentration (MIC) was 50 µM (≈ 33.5 µg/mL) in the assay on Escherichia coli and more than 100 µM against Staphylococcus aureus.

Take `CCn1cc(C(=O)Nc2ccc3c(c2)C(=O)NCCC(=O)N[C@H](CCN)C(=O)N[C@@H](Cc2ccccc2)CO3)c(=O)c2ccc(C)nc21`: the MIC is 50 µM (≈ 32.7 µg/mL) with Escherichia coli and more than 100 µM with Staphylococcus aureus.

Regarding `CCn1cc(C(=O)Nc2ccc3c(c2)C(=O)NCCC(=O)N[C@@H](CCN)C(=O)N[C@H](Cc2ccc(O)cc2)CO3)c(=O)c2ccc(C)nc21`, the minimum inhibitory concentration (MIC) in the assay with Escherichia coli is 50 µM (≈ 33.5 µg/mL); in the assay with Staphylococcus aureus, more than 100 µM.

Take `CC1COc2c(N3CCN(C)CC3)c(F)cc3c2N1CC(C(=O)NCCCC(=O)Nc1ccc2c(c1)C(=O)NCCC(=O)N[C@@H](CCN)C(=O)N[C@H](Cc1ccc(O)cc1)CO2)C3=O` (some centres not stated): the MIC worked out at 3 µM (≈ 2.66 µg/mL) in the assay with Escherichia coli and 25 µM (≈ 22.1 µg/mL) against Staphylococcus aureus.

For `NCC[C@@H]1NC(=O)CCNC(=O)c2cc(NC(=O)Cn3cnc4c(O)nc(N)nc43)ccc2OC[C@@H](Cc2ccc(O)cc2)NC1=O`, the MIC against Escherichia coli and in the assay with Staphylococcus aureus was more than 100 µM in each case.

In the case of `CC1COc2c(N3CCN(C)CC3)c(F)cc3c2N1CC(C(=O)NCC(=O)Nc1ccc2c(c1)C(=O)NCCC(=O)N[C@@H](CCN)C(=O)N[C@H](Cc1ccc(O)cc1)CO2)C3=O` (some centres not stated), the minimum inhibitory concentration (MIC) in the assay with Escherichia coli was 3 µM (≈ 2.57 µg/mL); against Staphylococcus aureus, 50 µM (≈ 42.9 µg/mL).

Take `CCn1cc(C(=O)Nc2ccc3c(c2)C(=O)NCCC(=O)N[C@@H](CCN)C(=O)N[C@H](Cc2ccccc2)CO3)c(=O)c2ccc(C)nc21`: the minimal inhibitory concentration (MIC) in the assay with Escherichia coli is 50 µM (≈ 32.7 µg/mL); in the assay on Staphylococcus aureus it was more than 100 µM.

On to `NCC[C@@H]1NC(=O)CCNC(=O)c2cc(NC(=O)c3cnccn3)ccc2OC[C@@H](Cc2ccc(O)cc2)NC1=O`, for which the MIC in the assay on Escherichia coli and with Staphylococcus aureus was more than 100 µM throughout.

Consider `CC1COc2c(N3CCN(C)CC3)c(F)cc3c2N1CC(C(=O)NCCCCC(=O)Nc1ccc2c(c1)C(=O)NCCC(=O)N[C@@H](CCN)C(=O)N[C@H](Cc1ccc(O)cc1)CO2)C3=O` (some centres not stated), for which the minimal inhibitory concentration (MIC) amounted to 3 µM (≈ 2.7 µg/mL) with Escherichia coli and 25 µM (≈ 22.5 µg/mL) with Staphylococcus aureus.

Consider `CCn1cc(C(=O)Nc2ccc3c(c2)C(=O)NCCC(=O)N[C@H](CCN)C(=O)N[C@H](Cc2ccc(O)cc2)CO3)c(=O)c2ccc(C)nc21`, for which the values for the MIC against Escherichia coli and in the assay with Staphylococcus aureus were 50 µM (≈ 33.5 µg/mL) and more than 100 µM, respectively.

As to `CC1COc2c(N3CCN(C)CC3)c(F)cc3c2N1CC(C(=O)NCCCCCC(=O)Nc1ccc2c(c1)C(=O)NCCC(=O)N[C@@H](CCN)C(=O)N[C@H](Cc1ccc(O)cc1)CO2)C3=O` (some centres not stated), the minimal inhibitory concentration (MIC) in the assay with Escherichia coli is 3 µM (≈ 2.74 µg/mL); against Staphylococcus aureus, 25 µM (≈ 22.9 µg/mL).
